# From patent US20040176349A1, “Antibacterial composition” (priority 2001, published 2004)
# Like-named read-outs stand apart in the source and are kept apart here.
# Key:
# E. faecalis 24592 = assay: MIC, microbroth dilution (NCCLS), Table 1; assay type: cell-based; settings: Enterococcus faecalis, 24592
# Procedure: (§1) The minimum inhibitory concentration (MIC) of the compounds was determined using the microbroth dilution technique in accordance with NCCLS guidelines, employing Mueller-Hinton broth (National Committee for Clinical Laboratory Standards, NCCLS, 1995 “Methods for dilution antimicrobial susceptibility tests for bacteria that grow aerobically”—approved standard M7-A5).
# (§2) The compounds were tested in isolation, at different concentrations.
# E. faecalis NCTC 5957 = assay: MIC, microbroth dilution (NCCLS), Table 1; assay type: cell-based; settings: Enterococcus faecalis, NCTC5957
# Procedure: as §1, §2
# E. faecalis Phillips = assay: MIC, microbroth dilution (NCCLS), Table 1; assay type: cell-based; settings: Enterococcus faecalis
# Procedure: as §1, §2
# E. faecalis SFZ = assay: MIC, microbroth dilution (NCCLS), Table 1; assay type: cell-based; settings: Enterococcus faecalis
# Procedure: as §1, §2
# E. faecium NCTC 7171 = assay: MIC, microbroth dilution (NCCLS), Table 1; assay type: cell-based; settings: Enterococcus faecium, NCTC7171
# Procedure: as §1, §2
# E. hirae ATCC 10541 = assay: MIC, microbroth dilution (NCCLS), Table 1; assay type: cell-based; settings: Enterococcus hirae, ATCC10541
# Procedure: as §1, §2
# VRE 1662 = assay: MIC, microbroth dilution (NCCLS), Table 1; assay type: cell-based, Enterococcus; settings: Enterococcus, VRE
# Procedure: as §1, §2
# VRE 300 1562 = assay: MIC, microbroth dilution (NCCLS), Table 1; assay type: cell-based, Enterococcus; settings: Enterococcus, VRE
# Procedure: as §1, §2
# VRE 300 1590 = assay: MIC, microbroth dilution (NCCLS), Table 1; assay type: cell-based, Enterococcus; settings: Enterococcus, VRE
# Procedure: as §1, §2
# VRE 300 2043 = assay: MIC, microbroth dilution (NCCLS), Table 1; assay type: cell-based, Enterococcus; settings: Enterococcus, VRE
# Procedure: as §1, §2
# E. faecalis 5659 (vanA) = assay: Checkerboard microdilution MIC with PFOB, Table 2; assay type: cell-based; settings: E. faecalis 5659 (vanA)
# Outline: (§3)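 Checkerboard microdilution pairing PFOB with other antibiotics. Synergy scored by FIC index: combination FIC <0.5 synergy, 0.5-2.0 indifference, >2 antagonism, with synergy requiring at least a 4-fold reduction for each compound.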
# E. faecalis ATCC 29212 = assay: Checkerboard microdilution MIC with PFOB, Table 2; assay type: cell-based
# Outline: as §3
# E.faecalis 78097 (van B) = assay: Checkerboard microdilution MIC with PFOB, Table 2; assay type: cell-based
# Outline: as §3
# E. faecalis ATCC 10541 = assay: Checkerboard microdilution MIC with PFOB, Table 2; assay type: cell-based; settings: for MIC: Enterococcus faecalis, ATCC10541
# Source text: The aim of the study was to detect any synergy between PFOB and the other antibiotics. For the purposes of the study, synergy was defined in accordance with the FIC (fractional inhibitory concentration) index, as disclosed by Lorian (1991, In “Antibiotics in Laboratory Medicine” 3rd edition, Eds. Williams & Wilkins; esp. p 434-443).
# [1] = test system: E. faecalis SFZ (vancomycin-sensitive isolate, VSE); assay: Time-kill experiment (viable count); assay type: cell-based; settings: FIG. 2, ceftazidime alone at 128 mg/L, PFOB alone at 64 mg/L
# Source text: FIG. 2 is a graph of Log viable count (cfu per ml) against time (in hours) for the VSE isolate in the presence or absence of the drugs. […] The isolates used in the Example are purely illustrative and not especially unusual.
# Enterococcus strains = assay: MIC against Enterococcus strains, summary of Example 1; assay type: cell-based; settings: for MIC: Enterococcus, vancomycin-susceptible strains and one vancomycin-resistant strain
# Procedure: as §1, §2
smiles,measurement,setting,value
"CC(C)(O/N=C(\C(=O)N[C@@H]1C(=O)N2C(C(=O)[O-])=C(C[n+]3ccccc3)CS[C@H]12)c1csc(N)n1)C(=O)O [CAZ, ceftazidime]",MIC,E. faecalis 24592,> 128 µg/mL
same,MIC,E. faecalis NCTC 5957,> 128 µg/mL
same,MIC,E. faecalis Phillips,> 128 µg/mL
same,MIC,E. faecalis SFZ,> 128 µg/mL
same,MIC,E. faecium NCTC 7171,> 128 µg/mL
same,MIC,E. hirae ATCC 10541,> 128 µg/mL
same,MIC,VRE 1662,> 128 µg/mL
same,MIC,VRE 300 1562,> 128 µg/mL
same,MIC,VRE 300 1590,> 128 µg/mL
same,MIC,VRE 300 2043,> 128 µg/mL
same,MIC of partner antibiotic in the presence of PFOB at 0.5 mg/L,E. faecalis 5659 (vanA); PFOB 0.5 mg/L,>64 µg/mL
same,MIC of partner antibiotic in the presence of PFOB at 1 mg/L,E. faecalis 5659 (vanA); PFOB 1 mg/L,>64 µg/mL
same,MIC of partner antibiotic in the presence of PFOB at 2 mg/L,E. faecalis 5659 (vanA); PFOB 2 mg/L,>64 µg/mL
same,MIC of partner antibiotic in the presence of PFOB at 4 mg/L,E. faecalis 5659 (vanA); PFOB 4 mg/L,>64 µg/mL
same,MIC of partner antibiotic in the presence of PFOB at 8 mg/L,E. faecalis 5659 (vanA); PFOB 8 mg/L,>64 µg/mL
same,MIC of partner antibiotic in the presence of PFOB at 16 mg/L,E. faecalis 5659 (vanA); PFOB 16 mg/L,>64 µg/mL
same,MIC of partner antibiotic in the presence of PFOB at 32 mg/L,E. faecalis 5659 (vanA); PFOB 32 mg/L,0.25 µg/mL
same,MIC,"E. faecalis 5659 (vanA); Enterococcus faecalis, partner antibiotic alone, read-out: MIC (alone) of Partner",> 64 µg/mL
same,Synergy FIC,"E. faecalis ATCC 29212; E. faecalis ATCC 29212, FIC index of PFOB + labelled partner, <0.5 = synergy",0.188
same,MIC of partner antibiotic in the presence of PFOB at 0.5 mg/L,"E. faecalis ATCC 29212; E. faecalis ATCC 29212, PFOB 0.5 mg/L",>64 µg/mL
same,MIC of partner antibiotic in the presence of PFOB at 1 mg/L,"E. faecalis ATCC 29212; E. faecalis ATCC 29212, PFOB 1 mg/L",>64 µg/mL
same,MIC of partner antibiotic in the presence of PFOB at 2 mg/L,"E. faecalis ATCC 29212; E. faecalis ATCC 29212, PFOB 2 mg/L",>64 µg/mL
same,MIC of partner antibiotic in the presence of PFOB at 4 mg/L,"E. faecalis ATCC 29212; E. faecalis ATCC 29212, PFOB 4 mg/L",32 µg/mL
same,MIC of partner antibiotic in the presence of PFOB at 8 mg/L,"E. faecalis ATCC 29212; E. faecalis ATCC 29212, PFOB 8 mg/L",16 µg/mL
same,MIC of partner antibiotic in the presence of PFOB at 16 mg/L,"E. faecalis ATCC 29212; E. faecalis ATCC 29212, PFOB 16 mg/L",8 µg/mL
same,MIC of partner antibiotic in the presence of PFOB at 32 mg/L,"E. faecalis ATCC 29212; E. faecalis ATCC 29212, PFOB 32 mg/L",2 µg/mL
same,MIC,"E. faecalis ATCC 29212; Enterococcus faecalis, ATCC29212, E. faecalis ATCC 29212, partner antibiotic alone, read-out: MIC (alone) of Partner",> 64 µg/mL
same,synergy with PFOB,"E. faecalis ATCC 29212; checkerboard, E. faecalis ATCC 29212, vancomycin-susceptible, in words",marked synergy
same,Synergy FIC,"E.faecalis 78097 (van B); E.faecalis 78097 (van B), FIC index of PFOB + labelled partner, <0.5 = synergy",0.156
same,MIC of partner antibiotic in the presence of PFOB at 0.5 mg/L,"E.faecalis 78097 (van B); E.faecalis 78097 (van B), PFOB 0.5 mg/L",>64 µg/mL
same,MIC of partner antibiotic in the presence of PFOB at 1 mg/L,"E.faecalis 78097 (van B); E.faecalis 78097 (van B), PFOB 1 mg/L",>64 µg/mL
same,MIC of partner antibiotic in the presence of PFOB at 2 mg/L,"E.faecalis 78097 (van B); E.faecalis 78097 (van B), PFOB 2 mg/L",32 µg/mL
same,MIC of partner antibiotic in the presence of PFOB at 4 mg/L,"E.faecalis 78097 (van B); E.faecalis 78097 (van B), PFOB 4 mg/L",16 µg/mL
same,MIC of partner antibiotic in the presence of PFOB at 8 mg/L,"E.faecalis 78097 (van B); E.faecalis 78097 (van B), PFOB 8 mg/L",16 µg/mL
same,MIC of partner antibiotic in the presence of PFOB at 16 mg/L,"E.faecalis 78097 (van B); E.faecalis 78097 (van B), PFOB 16 mg/L",8 µg/mL
same,MIC of partner antibiotic in the presence of PFOB at 32 mg/L,"E.faecalis 78097 (van B); E.faecalis 78097 (van B), PFOB 32 mg/L",4 µg/mL
same,MIC of PFOB & Partner: Partner concentration,"E.faecalis 78097 (van B); E.faecalis 78097 (van B), optimum synergistic combination with PFOB, second figure (partner)",16 µg/mL
same,MIC,"E.faecalis 78097 (van B); Enterococcus faecalis, E.faecalis 78097 (van B), partner antibiotic alone, read-out: MIC (alone) of Partner",> 64 µg/mL
same,synergy with PFOB,"E.faecalis 78097 (van B); checkerboard, E. faecalis 78097, vanB-mediated vancomycin resistance, in words",Synergy was also observed
same,MIC of partner antibiotic in the presence of PFOB at 0.5 mg/L,"E. faecalis ATCC 10541; E. faecalis ATCC 10541, PFOB 0.5 mg/L",>64 µg/mL
same,MIC of partner antibiotic in the presence of PFOB at 1 mg/L,"E. faecalis ATCC 10541; E. faecalis ATCC 10541, PFOB 1 mg/L",>64 µg/mL
same,MIC of partner antibiotic in the presence of PFOB at 2 mg/L,"E. faecalis ATCC 10541; E. faecalis ATCC 10541, PFOB 2 mg/L",>64 µg/mL
same,MIC of partner antibiotic in the presence of PFOB at 4 mg/L,"E. faecalis ATCC 10541; E. faecalis ATCC 10541, PFOB 4 mg/L",>64 µg/mL
same,MIC of partner antibiotic in the presence of PFOB at 8 mg/L,"E. faecalis ATCC 10541; E. faecalis ATCC 10541, PFOB 8 mg/L",8 µg/mL
same,MIC of partner antibiotic in the presence of PFOB at 16 mg/L,"E. faecalis ATCC 10541; E. faecalis ATCC 10541, PFOB 16 mg/L",4 µg/mL
same,MIC of partner antibiotic in the presence of PFOB at 32 mg/L,"E. faecalis ATCC 10541; E. faecalis ATCC 10541, PFOB 32 mg/L",<0.06 µg/mL
same,MIC,"E. faecalis ATCC 10541; E. faecalis ATCC 10541, optimum synergistic combination of PFOB with the labelled partner, first figure (PFOB), read-out: MIC of PFOB & Partner: PFOB concentration",8 µg/mL
same,MIC,"E. faecalis ATCC 10541; E. faecalis ATCC 10541, optimum synergistic combination with PFOB, second figure (partner), read-out: MIC of PFOB & Partner: Partner concentration",8 µg/mL
same,MIC,"E. faecalis ATCC 10541; E. faecalis ATCC 10541, partner antibiotic alone, read-out: MIC (alone) of Partner",> 64 µg/mL
same,synergy with PFOB,"E. faecalis ATCC 10541; checkerboard, E. faecium ATCC 10541 (as named), vancomycin-susceptible, in words",marked synergy
same,"effect on growth (viable count, time-kill)",[1],some inhibitory effect on growth
same,MIC,"Enterococcus strains; read-out: MIC of CAZ used in conjunction with PFOB, PFOB at 4 mg/L",< 0.06 µg/mL
same,MIC,Enterococcus strains; read-out: MIC of CAZ used in isolation,> 128 µg/mL
same,reduction in the MIC of CAZ by PFOB,Enterococcus strains; PFOB at 4 mg/L versus CAZ in isolation,"about 2,000 fold"
same,activity in isolation against the Enterococcus strains tested,"Enterococcus strains; compound alone, all strains of Table 1, in words",no activity
